Experimental data as given in patent US8609680B2, “2,3-dihydro-1H-inden-1-yl-2,7-diazaspiro[3.5] nonane derivatives” (Pfizer Inc., priority 2010, dated 2013).
Where two headings read alike, the source gives them in different places.

Columns and labels:
human GHSR1a [1] = target: T1, human GHSR1a (Homo sapiens, UniProt Q92847); assay: Human Ghrelin SPA Binding Assay
T1 construct: expressed in transfected cells; host or cells: HEK293 Tetracycline-Inducible cell line, used as membranes
Text: The SPA format was utilized for high throughput screening of test compounds and filter binding served for more comprehensive binding characterization.
Human Ghrelin SPA Binding Assay

human GHSR1a [2] = target: T1, human GHSR1a; assay: Human Ghrelin Functional Assay (DELFIA GTP-binding assay); assay type: biochemical; settings: GTP-Europium exchange, human GHSR1a membranes, with and without ghrelin at EC80
Description: Human Ghrelin Functional Assay
To measure the ability of test compounds in the present invention to modulate the activity of human GHSR1a (agonize, antagonize, partially agonize, inversely agonize), a DELFIA GTP-binding assay (Perkin Elmer, AD0260 and AD0261) is performed. The assay monitors the ligand-dependent exchange of GDP for GTP. GPCR activation results in an increase in fluorescence as receptor-bound GDP is replaced by Europium-labeled GTP.
Ghrelin functional assays are performed in a final volume of 39.5 μl containing 720 ng human GHSR1a (HEK293 Tetracycline-Inducible cell line expressing the human growth secretagogue receptor la, prepared as membranes), 9 nM GTP-Europium and varying concentrations of test compound or vehicle. To test for receptor antagonism, membranes are incubated in the presence of agonist ghrelin (Anaspec, 24158) at the EC80 concentration, plus test compound or vehicle.
Briefly, test compounds are prepared at room temperature in 384-well plates (Matrix, 4340). […] Samples are then transferred as 6 μl to 384-well filter plates (Pall, 5071) containing 30 μl of 24 μg/ml hGHSR1a membrane and 0.35 mg/ml saponin (Perkin Elmer, AD0261) in basal buffer.
The mixture is incubated 24 minutes at room temperature with gentle shaking, followed by the addition of 3.5 μl of 100 nM GTP-Europium in 50 mM HEPES, pH 7.4. Samples are shielded from light and incubated for 90 minutes further at room temperature with gentle shaking. The reactions are suctioned dry with vacuum, washed three times with 75 μl ice cold 1× GTP Wash Solution (Perkin Elmer, AD0261), and immediately read on the Envision 2101 Multilabel Reader (Perkin Elmer) using excitation filter 320 nm and emission filter 615 nm.

[3] = SPA format, [125I] ghrelin displacement, human GHSR1a membranes, Ki=IC50/(1+[ligand]/Kd)

T1 sequence (Q92847 whole entry): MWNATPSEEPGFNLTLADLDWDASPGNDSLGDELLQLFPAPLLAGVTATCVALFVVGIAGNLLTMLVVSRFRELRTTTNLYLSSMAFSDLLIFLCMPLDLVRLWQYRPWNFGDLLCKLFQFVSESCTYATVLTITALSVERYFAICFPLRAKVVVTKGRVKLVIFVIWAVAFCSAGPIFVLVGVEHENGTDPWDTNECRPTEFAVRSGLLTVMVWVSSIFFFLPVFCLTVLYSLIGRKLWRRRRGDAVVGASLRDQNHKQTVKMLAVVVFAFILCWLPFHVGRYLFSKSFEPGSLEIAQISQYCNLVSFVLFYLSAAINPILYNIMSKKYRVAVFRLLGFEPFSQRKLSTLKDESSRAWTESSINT

| Compound | functional comment (human GHSR1a [2]) | IC50 (human GHSR1a [1]) [µM] | Ki (human GHSR1a [1]) [µM] | IC50 (human GHSR1a [1]; SPA format, [125I] ghrelin displacement, human GHSR1a membranes from HEK293 Tetracycline-Inducible cell line) [µM] | Ki (human GHSR1a [1]; [3]) [µM] |
| --- | --- | --- | --- | --- | --- |
| 5-{(1R)-1-[7-(2,3-dihydro[1,4]dioxino[2,3-b]pyridin-6-yl)acetyl)-2,7-diazaspiro[3.5]non-2-yl]-2,3-dihydro-1H-inden-5-yl}pyridine-2-carboxamide [Example 9A] | inverse agonist | – | – | 0.0159 | 0.0139 |
| COc1ccc(CC(=O)N2CCC3(CC2)CN(C2CCc4cc(-c5cc(C#N)ccn5)ccc42)C3)nc1 (racemic) [Example 2C] | inverse agonist | 0.0137 | 0.038 | – | – |
| COc1ccc(CC(=O)N2CCC3(CC2)CN(C2CCc4cc(-c5cc(OC)ncn5)ccc42)C3)nc1 (racemic) [Example 2F] | inverse agonist | 0.0359 | 0.0502 | – | – |
| COc1ccc(CC(=O)N2CCC3(CC2)CN(C2CCc4cc(-c5cnccn5)ccc42)C3)nc1 (racemic) [Example 2H] | inverse agonist | 0.0922 | 0.218 | – | – |
| COc1ccc(CC(=O)N2CCC3(CC2)CN(C2CCc4cc(-c5nc(C)cc(C)n5)ccc42)C3)nc1 (racemic) [Example 2I] | inverse agonist | 0.0153 | 0.0512 | – | – |
| COc1ccc(CC(=O)N2CCC3(CC2)CN(C2CCc4cc(-c5cccc(C)n5)ccc42)C3)nc1 (racemic) [Example 2J] | inverse agonist | 0.022 | – | – | – |
| COc1ccc(CC(=O)N2CCC3(CC2)CN(C2CCc4cc(-c5ccc(OC)cn5)ccc42)C3)nc1 (stereo not shown) [Example 2A, 7-[(5-Methoxypyridin-2-yl)acetyl]-2-[5-(5-methoxypyridin-2-yl)-2,3-dihydro-1H-inden-1-yl]-2,7-diazaspiro[3.5]nonane] | inverse agonist | 0.0227 | 0.0913 | – | – |
| CCc1cnc(-c2ccc3c(c2)CC[C@H]3N2CC3(CCN(C(=O)Cc4ccc(OC)cn4)CC3)C2)nc1 [Example 3A, 2-[(1R)-5-(5-Ethylpyrimidin-2-yl)-2,3-dihydro-1H-inden-1-yl]-7-[(5-methoxypyridin-2-yl)acetyl]-2,7-diazaspiro[3.5]nonane] | inverse agonist | 0.00946 | – | – | 0.00903 |
| CCc1cc(-c2ccc3c(c2)CC[C@H]3N2CC3(CCN(C(=O)Cc4ccc(OC)cn4)CC3)C2)ncn1 [Example 3AA] | inverse agonist | 0.0098 | 0.00859 | – | – |
| COc1ccc(CC(=O)N2CCC3(CC2)CN([C@@H]2CCc4cc(-c5ncco5)ccc42)C3)cc1 [Example 3AD] | inverse agonist | 0.0195 | 0.0155 | – | – |
| O=C(Cc1ccc(C2CC2)cn1)N1CCC2(CC1)CN([C@@H]1CCc3cc(-c4ncccn4)ccc31)C2 [Example 3AF] | inverse agonist | 0.00741 | 0.00613 | – | – |
| Cc1cc(C)nc(-c2ccc3c(c2)CC[C@H]3N2CC3(CCN(C(=O)Cc4cn5nc(C)sc5n4)CC3)C2)n1 [Example 3AL] | inverse agonist | 0.00773 | 0.00691 | – | – |
| Cc1cnc(-c2ccc3c(c2)CC[C@H]3N2CC3(CCN(C(=O)Cc4cn5nc(C)sc5n4)CC3)C2)nc1 [Example 3AN] | inverse agonist | 0.0166 | 0.0149 | – | – |
| Cc1cc(-c2ccc3c(c2)CC[C@H]3N2CC3(CCN(C(=O)Cc4cn5nc(C)sc5n4)CC3)C2)nc(C)n1 [Example 3AO] | inverse agonist | 0.0168 | 0.0151 | – | – |
| Cc1ccn2cc(CC(=O)N3CCC4(CC3)CN([C@@H]3CCc5cc(-c6cc(C#N)ncn6)ccc53)C4)nc2c1 [Example 3AP] | inverse agonist | 0.0272 | 0.0244 | – | – |
| Cc1cc(-c2ccc3c(c2)CC[C@H]3N2CC3(CCN(C(=O)Cc4cn5c(C)c(C)sc5n4)CC3)C2)ncn1 [Example 3AR] | inverse agonist | 0.0339 | 0.0303 | – | – |
| Cc1cc(-c2ccc3c(c2)CC[C@H]3N2CC3(CCN(C(=O)Cc4ccc5c(n4)OCCO5)CC3)C2)ncn1 [Example 3D] | inverse agonist | 0.0102 | 0.00891 | – | – |
| Cc1nccc(-c2ccc3c(c2)CC[C@H]3N2CC3(CCN(C(=O)Cc4ccc5c(n4)OCCO5)CC3)C2)n1 [Example 3E, 6-(2-{2-[(1R)-5-(2-methylpyrimidin-4-yl)-2,3-dihydro-1H-inden-1-yl]-2,7-diazaspiro[3.5]non-7-yl}-2-oxoethyl)-2,3-dihydro[1,4]dioxino[2,3-b]pyridine] | inverse agonist | 0.0207 | 0.0185 | – | – |
| COc1ccc(CC(=O)N2CCC3(CC2)CN([C@@H]2CCc4cc(-n5cc(C)cn5)ccc42)C3)nc1 [Example 8A, 7-[(5-methoxypyridin-2-yl)acetyl]-2-[(1R)-5-(4-methyl-1H-pyrazol-1-yl)-2,3-dihydro-1H-inden-1-yl]-2,7-diazaspiro[3.5]nonane] | – | 0.029 | 0.0247 | – | – |
| COc1ccc(CC(=O)N2CCC3(CC2)CN([C@@H]2CCc4cc(-n5cc(C)cn5)ccc42)C3)cc1 [Example 8B] | – | 0.0105 | 0.00897 | – | – |
| COc1ccc(CC(=O)N2CCC3(CC2)CN([C@@H]2CCc4cc(-n5cccn5)ccc42)C3)nc1 [Example 8C] | – | 0.0823 | 0.0664 | – | – |

Further lines, with some results ahead:

| functional comment (human GHSR1a [2]) | IC50 (human GHSR1a [1]) [µM] | Ki (human GHSR1a [1]) [µM] | Compound | IC50 (human GHSR1a [1]; SPA format, [125I] ghrelin displacement, human GHSR1a membranes from HEK293 Tetracycline-Inducible cell line) [µM] | Ki (human GHSR1a [1]; [3]) [µM] |
| --- | --- | --- | --- | --- | --- |
| – | 0.0552 | 0.0475 | COc1ccc(CC(=O)N2CCC3(CC2)CN([C@@H]2CCc4cc(-c5ccc(C(N)=O)nc5)ccc42)C3)nc1 [Example 9B] | – | – |
| – | 0.117 | 0.102 | Cc1ccc(CC(=O)N2CCC3(CC2)CN([C@@H]2CCc4cc(-c5ccc(C(N)=O)nc5)ccc42)C3)nc1 [Example 9C] | – | – |
| – | 0.0122 | 0.0106 | Cc1cn2cc(CC(=O)N3CCC4(CC3)CN([C@@H]3CCc5cc(-c6ccc(C(N)=O)nc6)ccc53)C4)nc2s1 [Example 9D] | – | – |
| – | 0.0337 | 0.0292 | NC(=O)c1ccc(-c2ccc3c(c2)CC[C@H]3N2CC3(CCN(C(=O)Cc4cn5ccccc5n4)CC3)C2)cn1 [Example 9E] | – | – |
| – | 0.0626 | 0.0555 | COc1ccc(CC(=O)N2CCC3(CC2)CN([C@@H]2CCc4cc(-c5cnc(C(N)=O)cn5)ccc42)C3)nc1 [Example 10A, 5-[(1R)-1-{7-[(5-methoxypyridin-2-yl)acetyl]-2,7-diazaspiro[3.5]non-2-yl}-2,3-dihydro-1H-inden-5-yl]pyrazine-2-carboxamide] | – | – |
| – | 0.0234 | 0.0203 | Cc1ccn2cc(CC(=O)N3CCC4(CC3)CN([C@@H]3CCc5cc(-c6cnc(C(N)=O)cn6)ccc53)C4)nc2c1 [Example 10B] | – | – |
| – | 0.0931 | 0.0808 | NC(=O)c1cnc(-c2ccc3c(c2)CC[C@H]3N2CC3(CCN(C(=O)Cc4cn5ccccc5n4)CC3)C2)cn1 [Example 10C] | – | – |
| – | 0.0947 | 0.0829 | COc1ccc(CC(=O)N2CCC3(CC2)CN([C@@H]2CCc4cc(-c5cc(C(N)=O)ncn5)ccc42)C3)nc1 [Example 10D] | – | – |
| – | 0.141 | 0.123 | CCc1ccc(CC(=O)N2CCC3(CC2)CN([C@@H]2CCc4cc(-c5cnc(C(N)=O)cn5)ccc42)C3)nc1 [Example 10H] | – | – |
| – | 0.0333 | 0.0286 | COc1ccc(CC(=O)N2CCC3(CC2)CN([C@@H]2CCc4cc(-c5ccc(C(N)=O)cn5)ccc42)C3)nc1 [Example 11A, 6-((R)-1-{7-[2-(5-Methoxy-pyridin-2-yl)-acetyl]-2,7-diaza-spiro[3.5]non-2-yl}indan-5-yl)-nicotinamide] | – | – |
